The values that follow come from patent publication US20210107871A1 (priority 2017, published 2021).

The subject of this experiment is pseudotype VSV (expressing GFP) having the surface glycoprotein of Ebola virus (zaire sp.). In words: microbe, parasite or virus in culture. The experiment is classed as cell-based. Particulars: Vesicular stomatitis virus, Vero C1008, 18 h, read-out: Viral Infection rate (%); for activity at 0.312 µM: Compound Conc. 0.312 μM; for activity at 0.625 µM: Compound Conc. 0.625 μM; for activity at 1.25 µM: Compound Conc. 1.25 μM; for activity at 2.5 µM: Compound Conc. 2.5 μM; for activity at 5 µM: Compound Conc. 5 μM.

For `CCN(CC)CCCN(c1ccc(OC)cc1[N+](=O)[O-])S(=O)(=O)c1ccccc1` [4-1, N-[3-(diethylamino)propyl]-N-(4-methoxy-2-nitro-phenyl)benzensulfonamide], the activity at 0.312 µM is 87.5%, the activity at 0.625 µM was about 38%, the activity at 1.25 µM is about 12% and the activity at 2.5 µM was found to be 2.83%. Besides, the activity at 5 µM was 1.83%.

For the molecule `CCN(CC)CCCN(c1ccc(OC)cc1[N+](=O)[O-])S(=O)(=O)c1ccc(F)cc1` [4-3, 4-fluoro-N-[3-(diethylamino)propyl]-N-(4-methoxy-2-nitro-phenyl)benzensulfonamide], the activity at 0.312 µM worked out at 105%, the activity at 0.625 µM came to 88.1%, the activity at 1.25 µM was determined as 52.8% and the activity at 2.5 µM came to 18.4%. In addition, the activity at 5 µM was found to be 3.8%.

In the case of `CCN(CC)CCCN(c1ccc(OC)cc1[N+](=O)[O-])S(=O)(=O)c1cccc(F)c1` [4-4, 3-fluoro-N-[3-(diethylamino)propyl]-N-(4-methoxy-2-nitro-phenyl)benzensulfonamide], the activity at 0.312 µM was determined as 84.4%, the activity at 0.625 µM is 71.3%, the activity at 1.25 µM was found to be 29.7% and the activity at 2.5 µM was found to be 8.13%. Also, the activity at 5 µM stood at 2.05%.

Take `CCN(CC)CCCN(c1ccc(OC)cc1[N+](=O)[O-])S(=O)(=O)c1ccccc1F` [4-5, 2-fluoro-N-[3-(diethylamino)propyl]-N-(4-methoxy-2-nitro-phenyl)benzensulfonamide]: the activity at 0.625 µM amounted to 94.2%, the activity at 1.25 µM is 54.9% and the activity at 5 µM worked out at 3.18%.

In the case of `CCN(CC)CCCN(c1ccc(OC)cc1[N+](=O)[O-])S(=O)(=O)c1cccc(C)c1` [4-6, 3-methyl-N-[3-(diethylamino)propyl]-N-(4-methoxy-2-nitro-phenyl)benzenesulfonamide], the activity at 0.312 µM came to 91.2%, the activity at 0.625 µM stood at 91.1%, the activity at 1.25 µM is 57.1% and the activity at 2.5 µM came out at 20.1%. The activity at 5 µM was found to be 3.8%.

Consider `CCN(CC)CCCN(c1ccc(OC)cc1[N+](=O)[O-])S(=O)(=O)c1ccccc1C` [4-7, 2-methyl-N-[3-(diethylamino)propyl]-N-(4-methoxy-2-nitro-phenyl)benzensulfonamide], for which the activity at 0.312 µM was determined as 87.2%, the activity at 0.625 µM stood at 68.4%, the activity at 1.25 µM is 37% and the activity at 2.5 µM was 12.9%. In addition, the activity at 5 µM turned out to be 5.08%.

For the molecule `CCN(CC)CCCN(c1ccccc1-c1ccccc1)S(=O)(=O)c1ccccc1` [4-8, N-[3-(diethylamino)propyl]-N-(2-phenyl-phenyl)benzensulfonamide], the activity at 0.312 µM worked out at 89%, the activity at 1.25 µM was 10.8%, the activity at 2.5 µM worked out at 1.93% and the activity at 5 µM was 1.11%.

On to `CCN(CC)CCCN(c1ccc(OC)cc1[N+](=O)[O-])S(=O)(=O)c1cccc2ccccc12` [4-9, N-[3-(diethylamino)propyl]-N-(4-methoxy-2-nitro-phenyl)naphthalene-1-sulfonamide], for which the activity at 0.312 µM stood at 82.5%, the activity at 0.625 µM came to 58.6%, the activity at 1.25 µM was 20.8% and the activity at 5 µM was 2.32%.

Take `CCN(CC)CCCN(c1ccc(OC)cc1[N+](=O)[O-])S(=O)(=O)c1ccc2ccccc2c1` [4-10, N-[3-(diethylamino)propyl]-N-(4-methoxy-2-nitro-phenyl)naphthalene-2-sulfonamide]: the activity at 0.312 µM was 106%, the activity at 0.625 µM turned out to be 103%, the activity at 2.5 µM stood at 22.7% and the activity at 5 µM amounted to 3.57%.

In the case of `CCN(CC)CCCN(c1ccc(OC)cc1[N+](=O)[O-])S(=O)(=O)c1ccc(OC)cc1` [4-11, 4-methoxy-N-[3-(diethylamino)propyl]-N-(4-methoxy-2-nitro-phenyl)benzensulfonamide], the activity at 0.312 µM was 88.3% and the activity at 5 µM worked out at 2.09%.
